Assay results from patent publication US4435396A, “Antiulcer 2-guanidino-4-(2-substituted-amino-4-imidazolyl)thiazoles and process therefor” (Pfizer Inc., priority 1982, dated 1984).
Values joined by “and” are separate entries in the source; they are usually repeats but may differ in a detail not shown here. Equal entries are not always repeated.

Columns and labels:
[1] = test system: ethanol-induced ulceration in rats; experiment: Inhibition of ethanol-induced ulceration in rats; type: in vivo, rat; conditions: oral dose of 30 mg/kg; for inhibition in vivo at 30 mg/kg: Rattus norvegicus, po
Experimental: The antiulcer activity of the products of this invention was also determined by an ethanol-induced rat ulcer assay. […] One hour after the ethanol challenge the animals (8/group) are killed and the stomachs examined for the presence of lesions. After sacrifice the abdomen is opened and a locking hemostat placed at the pylorus. Six ml of a 4% solution of formaldehyde was injected into the stomach with a gastric feeding tube and a second locking hemostat was used to seal the esophagus. The stomach was removed, opened along the greater curvature and examined for ulceration.
The scoring system used to quantitate the ethanol-induced lesions is given below.
For each group of animals an ulcer index is calculated as follows:
Ulceration Index=(the sum of the scores of the group)×(the sum of the number of ulcers in the group)×(the fraction of the group having any incidence of ulceration).
The percentage inhibition of ulcers is calculated as follows:
% Inhibition=100×[(ulcer index controls)-(ulcer index
drug-treated)].div.(ulcer index controls).

Heidenhain pouch dogs = experiment: Gastric acid antisecretory activity in pentagastrin-stimulated conscious Heidenhain pouch dogs; type: in vivo, dog; conditions: intravenously
Experimental: The gastric acid antisecretory activity of compounds of the present invention was determined in overnight fasted, conscious Heidenhain pouch dogs. Pentagastrin (Pentavolon-Ayerst) was used to stimulate acid output by continuous infusion into a superficial leg vein at doses earlier determined to stimulate near maximal acid output from the gastric pouch. Gastric juice was collected at 30 minute intervals following the start of a pentagastrin infusion and measured to the nearest 0.1 ml. Ten collections were taken for each dog during an experiment. Acid concentration was determined by tritrating 1.0 ml of gastric juice to pH 7.4 with 0.1 N sodium hydroxide using an Autoburette and a glass electrode pH meter (Radiometer).
Drug or vehicle was given intravenously 90 minutes following the start of the pentagastrin infusion, at a dose of 1 mg/kg or less. Gastric acid antisecretory effects were calculated by comparing the lowest acid output after drug administration with the mean acid output immediately before drug.

H2 -receptor = biological target: T1, H2 -receptor (Cavia porcellus, UniProt P47747); experiment: Histamine-H2 antagonist activity in isolated guinea pig right atria; type: cell-based; conditions: histamine dose-response, read-out: pA2 (apparent dissociation constant of the H2-receptor antagonist) (converted)
T1 construct: the heart removed and the right atria dissected free; from tissue; host or cells: guinea pig right atria
T1 sequence (P47747 whole entry): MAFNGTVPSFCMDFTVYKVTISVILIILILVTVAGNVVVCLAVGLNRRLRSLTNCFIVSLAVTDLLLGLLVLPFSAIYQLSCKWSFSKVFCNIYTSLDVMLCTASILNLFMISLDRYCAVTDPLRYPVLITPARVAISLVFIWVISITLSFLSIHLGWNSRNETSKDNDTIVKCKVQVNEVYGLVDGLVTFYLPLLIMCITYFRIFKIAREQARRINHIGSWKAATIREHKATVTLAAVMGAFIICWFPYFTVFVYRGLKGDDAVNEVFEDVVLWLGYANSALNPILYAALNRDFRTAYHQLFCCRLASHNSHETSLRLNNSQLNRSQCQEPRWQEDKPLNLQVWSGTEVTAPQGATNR
Experimental: The histamine-H2 antagonist activity of compounds of the present invention was determined by the following procedure:
Guinea pigs are killed rapidly with a blow to the head, the heart removed and the right atria dissected free. Atria are suspended, isometrically, in a temperature-controlled (32°±2°) tissue bath (10 ml) containing oxygenated (95% O2; 5% CO2) Krebs-Henseleit buffer (pH 7.4) and are allowed to stabilize approximately one hour during which time the tissue bath is flushed several times. Individual atrial contractions are followed with a force-displacement transducer connected to a cardiotachometer and Grass polygraph recorder. After obtaining a dose-response curve to histamine, the bath containing each atrium is flushed several times with fresh buffer and the atria reequilibrated to basal rates. Following the return to basal rate, test compounds are addded at selected final concentrations and the histamine dose-response curve is again determined in the presence of antagonist. Results are expressed as dose-ratios, the ratio of histamine concentrations required to produce one-half of maximal stimulation in the presence and absence of antagonist, and the apparent dissociation constant of the H2 -receptor antagonist pA2, is determined.

[2] = dose of 1 mg/kg, pentagastrin-stimulated Heidenhain pouch dogs

CN(C)c1nc(-c2csc(N=C(N)N)n2)c[nH]1 [product x]
inhibition of ethanol-induced ulceration [1]: no significant activity

NC(N)=Nc1nc(-c2c[nH]c(N3CCCC3)n2)cs1 [product bb]
inhibition in vivo at 30 mg/kg [1]: ≥ 19%

NC(N)=Nc1nc(-c2c[nH]c(NC3CC3)n2)cs1 [product n]
inhibition of gastric secretion (Heidenhain pouch dogs; [2]): at least 21%
inhibition of gastric secretion (Heidenhain pouch dogs; dose of 3 microg/kg, Heidenhain pouch dogs): 42%
Kb (H2 -receptor): ≤ 1.26 µM and ≤ 0.1 µM and 0.00158 µM
inhibition in vivo at 30 mg/kg [1]: 7 to 13%

NC(N)=Nc1nc(-c2c[nH]c(NCCCCc3ccccc3)n2)cs1 [product t]
Kb (H2 -receptor): ≤ 0.1 µM
inhibition in vivo at 30 mg/kg [1]: 86 to 100%

NC(N)=Nc1nc(-c2c[nH]c(NCCc3ccccc3)n2)cs1 [product r]
inhibition of gastric secretion (Heidenhain pouch dogs; [2]): at least 21%

CCN(CC)c1nc(-c2csc(N=C(N)N)n2)c[nH]1 [product z]
inhibition in vivo at 30 mg/kg [1]: ≥ 19%

NC(N)=Nc1nc(-c2c[nH]c(NCCc3ccccn3)n2)cs1 [product v]
inhibition of ethanol-induced ulceration [1]: no significant activity

NC(N)=Nc1nc(-c2c[nH]c(NCCc3ccncc3)n2)cs1 [product u]
inhibition in vivo at 30 mg/kg [1]: 21 to 51%

NC(N)=Nc1nc(-c2c[nH]c(N3CCOCC3)n2)cs1 [product aa]
inhibition of ethanol-induced ulceration [1]: no significant activity

CC(C)CCNc1nc(-c2csc(N=C(N)N)n2)c[nH]1 [product m]
inhibition in vivo at 30 mg/kg [1]: ≥ 19%

NC(N)=Nc1nc(-c2c[nH]c(NC3CCCC3)n2)cs1 [product o]
Kb (H2 -receptor): ≤ 1.26 µM
inhibition of ethanol-induced ulceration [1]: no significant activity

CCN(C)c1nc(-c2csc(N=C(N)N)n2)c[nH]1 [product y]
inhibition in vivo at 30 mg/kg [1]: ≥ 19%

NC(N)=Nc1nc(-c2c[nH]c(NC3CCCCC3)n2)cs1 [product p]
inhibition in vivo at 30 mg/kg [1]: 7 to 13%

NC(N)=Nc1nc(-c2c[nH]c(NCCc3ccc(Cl)cc3)n2)cs1 [product w]
inhibition of gastric secretion (Heidenhain pouch dogs; the same (1 mg/kg) or a lower dose, Heidenhain pouch dogs): at least 97%
Kb (H2 -receptor): ≤ 0.1 µM

NC(N)=Nc1nc(-c2c[nH]c(NCc3ccccc3)n2)cs1 [product q]
inhibition in vivo at 30 mg/kg [1]: 7 to 13%

NC(N)=Nc1nc(-c2c[nH]c(NCCCc3ccccc3)n2)cs1 [product s]
Kb (H2 -receptor): ≤ 0.1 µM
inhibition in vivo at 30 mg/kg [1]: 86 to 100%

NC(N)=Nc1nc(-c2c[nH]c(N3CCCCC3)n2)cs1 [product cc]
inhibition of gastric secretion (Heidenhain pouch dogs; 0.1 mg/kg, Heidenhain pouch dogs): 72%
inhibition of gastric secretion (Heidenhain pouch dogs; [2]): at least 21%
inhibition in vivo at 30 mg/kg [1]: ≥ 19%
